Assay results: US11608313B2, “Adamantylmethylamine derivative and use thereof as pharmaceutical” (TOHOKU UNIVERSITY, priority 2017, dated 2023)

What was measured:
OBX mice = assay: Tail-suspension test and forced swim test in OBX mice (depression model); assay type: in vivo; settings: chronic oral treatment for 2 weeks, 1 mg/kg
Method: OBX mice were used as a depression model to determine the effect of TP-014 (chronic oral treatment for 2 weeks (1 mg/kg)) to ameliorate a depression-like symptom. OBX mice are reported to show a decline in cognitive function, but have originally been established as a depression model. Depression analysis was done by tail-suspension test and forced swim test. In the tail-suspension test, mice are hung upside-down by their tail. If the hung mice are affected by depression, they show a longer immobility time. The immobility time of normal mice is shorter since they move actively when hung. In the forced swim test, mice are forced to swim in a beaker filled with water. Depression mice neither swim nor move (just float). The time (immobility time(s)) for which mice stay still in such a way is measured.
The same model mice were orally treated with a single dose of each of the test compounds (1 mg/kg), and analyzed after 1 hour by tail-suspension test and forced swim test. The results are shown in FIGS. 22-1 (tail-suspension test) and 22-2 (forced swim test).

Kir6.1 channels = molecular target: T1, Kir6.1 channels (Mus musculus, UniProt P97794); assay: Patch-clamp assay of outward potassium current in Kir6.1 channel-overexpressing cells; assay type: cell-based; settings: 10 nM
T1 construct: The plasmid vector having inserted therein Kir6.1 channel cDNA: pcDNA3.1-Kir6.1; expressed in transfected cells; host or cells: Neuro2A (N2A) cells, mouse neuroblastoma
T1 sequence (P97794 1-424): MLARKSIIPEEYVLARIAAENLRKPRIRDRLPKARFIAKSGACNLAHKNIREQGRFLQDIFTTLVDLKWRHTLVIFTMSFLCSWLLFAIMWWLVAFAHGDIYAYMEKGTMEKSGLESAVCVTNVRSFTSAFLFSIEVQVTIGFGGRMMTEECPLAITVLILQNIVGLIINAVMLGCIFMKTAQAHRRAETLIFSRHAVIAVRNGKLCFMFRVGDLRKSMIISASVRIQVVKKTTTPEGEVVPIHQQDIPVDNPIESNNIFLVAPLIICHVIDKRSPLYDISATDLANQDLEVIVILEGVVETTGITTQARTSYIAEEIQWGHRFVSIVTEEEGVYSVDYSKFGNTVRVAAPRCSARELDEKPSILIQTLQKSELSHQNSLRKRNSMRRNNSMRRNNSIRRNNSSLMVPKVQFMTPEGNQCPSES
Description: Further, the obtained Kir6.1 channel-overexpressing cells were used to measure potassium current discharged out of the cells by a conventional patch-clamp assay. ATP-sensitive potassium channels (Kir6.1 channels) are localized in the cell membranes of nerve cells. If the channels are inhibited and closed, the threshold of the nerve cell membranes rises to create a condition analogous to temporal generation of action potential, with the result that intracellular potassium current is discharged out of the cells and instead extracellular calcium current enters the cells. Immunoblotting of Kir6.1 channel-overexpressing cells (prepared by the aforementioned method) using an anti-Kir6.1 channel antibody (prepared by a conventional method) (n=5, under the same conditions as in Test Example 1, except for using the anti-Kir6.1 channel antibody) confirmed that Kir6.1 channels were overexpressed in N2A cells (FIG. 18-2; upper: immunoblot staining images; lower: quantitative representations of the signal intensity of staining bands).

[1] = test system: Alzheimer's disease model mice (APP23 mice); assay: Cognitive function in Alzheimer's disease model mice (Test Example 4); assay type: in vivo; settings: APP23 mice 12 month-old, 1 mg/kg orally once a day for two months
Description: The test compound was orally administered in a dissolved state in a 0.5% aqueous solution of carboxymethyl cellulose (vehicle) (the same applies hereunder).

[2] = test system: Wild-type mice (C57BL/6J) treated with corticosterone; assay: Anxiety-related behavioral tests in corticosterone-treated wild-type mice; assay type: in vivo; settings: 1 mg/kg orally once a day for 2 weeks
Method: Wild-type mice (C57BL/6J, Japan SLC, two month-old) treated with corticosterone (at a dose of 5 mg/kg once a day for 2 weeks) and Kir6.1-deficient mice treated with corticosterone were used as disease models showing anxiety-like symptoms, to perform five behavioral tests regarding anxiety-related behaviors. The Kir6.1-deficient mice were obtained from Professor Susumu Seino, School of Medicine of Kobe University (Miki T., et al., Nature Medicine 2002, 8, 466-472).
The apparatus used in this test consists of four arms arranged in a cross shape at an elevated position, which are either open or closed. Mice vulnerable to anxiety stay in the closed arms for a longer time, whereas those resistant to anxiety stay in the open arms. In FIG. 19-1, the time spent in the open arms is shown on the vertical axis.
Mice placed in a black box (dark place) feel anxious about light. The time spent until mice began to come out of the box (to a bright place) was measured. […]
In a cage with a mouse, wood chips are spread over the cage floor and 20 marbles are placed thereon in a manner that is visible to the mouse. The mouse is allowed to freely explore for 30 minutes, and the number of marbles buried and hidden by the mouse in wood chips is counted. […]
The test apparatus used in this test was the same as used in the light/dark test method. […] Such an immobility time of mice is measured. […]

[3] = test system: Kir6.1-deficient mice (heterozygous); assay: Tail-suspension test and forced swim test in Kir6.1-deficient mice; assay type: in vivo; settings: chronic oral treatment for 2 weeks, 1 mg/kg
Description: Kir6.1-deficient mice (heterozygous, n=5 per group) were used to measure immobility time by tail-suspension test (FIG. 12-1) and forced swim test (FIG. 12-2) according to the same procedure as in Test Example 11. The heterozygous mice are those with half expression of Kir6.1 channels, unlike homozygous mice (complete Kir6.1-deficient mice) (homozygous mice die of arrhythmia after birth). […] The Kir6.1-deficient mice were obtained from Professor Susumu Seino, School of Medicine of Kobe University (Mild T., et al., Nature Medicine, 2002, 8, 466-472).

O=C(N[C@@H](c1ccccc1)[C@H]1[C@H]2C[C@@H]3C[C@](Cl)(C2)C[C@@]1(OC(=O)C(F)(F)F)C3)C(F)(F)F [TP-014, (1S,2R,3S,5S,7S)-5-chloro-2-((R)-phenyl(2,2,2-trifluoroacetamido)methyl)adamantan-1-yl 2,2,2-trifluoroacetate]
immobility time (tail-suspension test and forced swim test) (OBX mice): improved | outwardly flowing potassium current (Kir6.1 channels): suppressed | cognitive function enhancing effect [1]: significant cognitive function enhancing effect | exacerbated anxiety symptoms (elevated plus-maze, light/dark, marble burying, open field, fear conditioning tests) [2]: significant amelioration of exacerbated anxiety symptoms | depression-like symptom (immobility time) [3]: no effect
